From US20050107394A1, “Novel use of selective pde5 inhibitors” (priority 2001, published 2005)
Entries after “also recorded” stand apart in the source; their conditions may differ.

Tests used:
[1] = test system: bleomycin-induced pulmonary fibrosis in rabbits; assay: Shunting by MIGET in bleomycin-induced pulmonary fibrosis; assay type: in vivo, rabbit; conditions: for effect on shunting: NO inhaled, sildenafil oral; for shunting (MIGET), level reached: PGI 6 ng/kg/min systemic, NO 20 ppm inhaled, sildenafil 1 mg/kg oral
Protocol: FIG. 1: Result of determination of shunting with the aid of the model of bleomycin-induced pulmonary fibrosis in rabbits. The measurements by the inert gas exchange method (MIGET) [Wagner et al., J Appl Physiol. 1974;36:588-99] reveal that the shunting was increased by 15% in this model, compared with the untreated control. Systemically administered PGI [6 ng/kg body weight/min] (PGI, prostacyclin) increased the shunting to about 30%. […] Shunting was reduced to 6% by oral administration of the PDE5 inhibitor sidenafil [1 mg/kg body weight].
Healthy rabbits of both sexes were pretreated orally with a gyrase inhibitor (Baytril®) for one week. Ten animals pretreated in this way were not treated with bleomyin and served as control, and, on the day of exposure, the others were anaesthetized with a Ketanest®/Rompun® mixture, intubated intratracheally and ventilated mechanically. An ultrasonic nebulizer (MMAD 2.5 μm) was used to administer by inhalation exactly 1.8 U/kg of bodyweight of bleomycin under volume-controlled ventilation. After 4, 8, 16, 24, 32 and 64 days (in each case n≧5) post exposure, the animals were again anaesthetized, provided with an arterial access (right carotid artery) and underwent bodyweight-adapted ventilation via a tracheostomy in a volume-controlled method. The arterial pO2 and pCO2, and the static compliance of the lung were measured (by recording the intrathoracic pressure and with slow inflation/deflation manoeuvres). Subsequently, the lungs of these animals were dissected and perfused with a Krebs Hensefeit buffer. Under these conditions, the capillary filtraton coefficient (cfc) was then found from the weight gain of the organ after increasing the pulmonary venous pressure by 7.5 mmHg, and the peak ventilation pressure was found. After completion of these measurements, the left main bronchus was ligated in the end-inspiratory position and a bronchoalveolar lavage (BAL) was performed on the right lung. Subsequently, the large vessels and airways of the right lung were dissected off and the organ was homogenized. The left lung was perfusion-fixed with 4% formalin solution while maintaining a pressure gradient of 25 cm H2O and was then stored in 4% formalin until embedded. Firstly, the cells were removed from the BAL, counted and differentiated via a Papenheim stain. The cell-free BAL supernatant was then aliquoted and submitted to further analysis of the surfactant and coagulation properties and a determination of the matrix metallo proteinases (MMPs) and their inhibitors (TIMPs) and of soluble collagen. Bronchoalveolar deposition of 1.8 U/kg of bodyweight of bleomycin led initially to development of an ARDS-like event, with a massive restriction of gas exchange (paO2/FiO2 of >500 mmHg in the controls reduced to ˜110 mmHg on day 4), ground-glass opacities over all sections of the lung in the HRCT and an increase of about 5-fold in the capillary filtration coefficient (cfc). In the later phase of bleomycin-induced lung damage there was then development of pronounced fibrosis which could be confirmed on the basis of the increase in soluble collagen in the BAL and the hydroxyproline in the tissue, on the basis of the histological specimens and of the HRCT findings. […] Consistent with this, a pronounced increase in the extracellular matrix and an alveolar and also interstitial ingress of fibroblasts was observable in the histological sections. […]

[2] = test system: patients with chronic thromboembolism and displaying secondary PHT; assay: Low V/Q perfusion by MIGET in patients with chronic thromboembolism; assay type: in vivo, human; conditions: for effect on low-V/Q perfusion / ventilation/perfusion distribution (words): 7 patients with CTEPH; for low V/Q perfusion (MIGET), level reached: 7 patients, control 3.25%, PGI i.v. 6 ng/kg/min, NO 20 ppm inhaled, sildenafil 50 mg oral
Protocol: FIG. 3: Result of determination of the low V/Q perfusion measured by the inert gas exchange method (MIGET) [Wagner et al. J Appl Physiol. 1974;36:588-99] from 7 patients with chronic thromboembolism and displaying secondary PHT (pulmonary hypertension). Compared with the control group (3.25%), the shunting was increased with PGI (i.v.) [6 ng/kg bodyweight/min] to 19%, with NO (inhaled) [20 ppm] to 5.3% and with sildenafil (oral) [50 mg] to 5.3%.
(§1) 7 patients with CTEPH underwent a Swan-Ganz catheter investigation with measurement of the ventilation/perfusion (V/Q) distribution (using the multiple inert gas elimination technique (MIGET)). After determination of the baseline parameters (haemodynamics and gas exchange), all the patients initially inhaled 20 ppm NO, followed by a second baseline period (10-15 min), and then PGI was infused (6 ng/kg bodyweight/min), again followed by a second baseline period (10-15 min) and then an oral dose of 50 mg of sildenafil was given (120-150 min follow-up). 3 of the 7 patients were controlled by continuous nasal oxygen therapy in order to reach an arterial oxygenation of >88%. The following parameters were measured under baseline conditions: mean pulmonary arterial pressure (mPAP) 52.1 +/−3.3 mmHg, cardiac index (CI) 2.2+/−0.1 |* min^−1*m^−2, pulmonary vascular resistance index (PVRI) 1703.8+/−129.5 […], arterial pO2 72.5+/−3.3 mmHg and mixed venous oxygen saturation (SvO2) of 63.4+/−2.2%.

[3] = test system: patients with chronic thromboembolism and displaying secondary PHT; assay: Pulmonary vascular resistance (delta PVR, right cardiac catheterization) in patients with chronic thromboembolism; assay type: in vivo, human; conditions: for effect on pulmonary vascular resistance: 7 patients with CTEPH; for vascular resistance (PVR), reduction: 7 patients, PGI i.v. 6 ng/kg/min, NO 20 ppm inhaled, sildenafil 50 mg oral
Protocol: FIG. 4: Result of measurement of the arterial oxygen partial pressure (PaO2) on 7 patients with chronic thromboembolism and displaying secondary PHT (pulmonary hypertension). The arterial oxygen partial pressure was improved by NO (inhaled) [20 ppm] and sildenafil (oral) [50 mg] by respectively 1.8% and 7.6%, whereas the oxygen saturation fell by 13% after administration of PGI (intravenous). In the same experiment, the vascular resistance was measured and determined as delta PVR by a right cardiac catheterization. The vascular resistance was reduced respectively by 25%, 19% and 21% after administration of PGI (intravenous) [6 ng/kg bodyweight/min], NO (inhaled) [20 ppm] and sildenafil (oral) [50 mg].
as §1

Structure (SMILES)	effect on shunting [1]	shunting (MIGET), level reached [1]	effect on low-V/Q perfusion / ventilation/perfusion distribution (words) [2]	effect on low-V/Q perfusion / ventilation/perfusion distribution (words) ([2]; listed as Sildenafil)	low V/Q perfusion (MIGET), level reached [2] [%]	effect on pulmonary vascular resistance [3]	vascular resistance (PVR), reduction [3] [%]
CCCc1nn(C)c2c(=O)[nH]c(-c3cc(S(=O)(=O)N4CCN(C)CC4)ccc3OCC)nc12 [sildenafil, 5-[2-ethoxy-5-(4-methyl-1-piperazinyl-sulphonyl)phenyl]-1-methyl-3-n-propyl-1,6-dihydro-7H-pyrazolo[4,3-d]pyrimidin-7-one]	reduced the shunting even more than NO	6%	virtually unchanged	same effect as NO (inhaled)	5.3	marked reduction	21
CCCCC[C@H](O)/C=C/[C@@H]1[C@H]2C/C(=C/CCCC(=O)O)O[C@H]2C[C@H]1O [PGI, prostacyclin]		about 30%	greatly increased		19	marked reduction	25
[N]=O [NO, nitric oxide]	reduced the shunting	9%	virtually unchanged; also recorded: increased slightly		5.3	marked reduction	19
